Experimental data taken from ChEMBL document CHEMBL1144300, “Tellurium-based cysteine protease inhibitors: evaluation of novel organotellurium(IV) compounds as inhibitors of human cathepsin B” (Bioorg Med Chem Lett, 2005).

biological target: Cathepsin B (Homo sapiens) (UniProt P07858); assay: Second-order rate constant for inactivation of human cathepsin B

First: COc1ccc([Te]2(Cl)OC3(CCCCC3)/C2=C\Cl)cc1 (centres undefined)
Second: COc1ccc([Te]2(Cl)OC3(CCCCCC3)/C2=C\Cl)cc1 (centres undefined)
The K2 of the first is 22-fold higher: 36000 M⁻¹ s⁻¹ for the first, 1600 M⁻¹ s⁻¹ for the second.

Compared with `Cl[Te]1(Cl)OCCO1`, `CC[N+](CC)(CC)Cc1ccccc1.ClC1=C[Te](Cl)(Cl)OC1` is far higher in K2: 0.037 M⁻¹ s⁻¹ for the first, 6000 M⁻¹ s⁻¹ for the second.

Going from `OC(C/C(=C\Cl)[Te](Cl)(Cl)Cl)c1ccccc1` (centres undefined) to `COc1ccc([Te](Cl)(Cl)/C=C(\Cl)c2ccccc2)cc1`, the K2 falls from 12000 M⁻¹ s⁻¹ to 7900 M⁻¹ s⁻¹ (1.5-fold).

`COc1ccc([Te]2(Cl)OC3(CCCCC3)/C2=C\Br)cc1` (centres undefined) and `COc1ccc([Te](Cl)(Cl)/C(=C/Cl)C(C)(C)O)cc1` are within 1.5-fold of each other in K2: 7700 M⁻¹ s⁻¹ for the first, 11000 M⁻¹ s⁻¹ for the second.

For `COc1ccccc1C(=O)/C=C(/c1ccccc1OC)[Te](Cl)(Cl)Cl`, the K2 was 15000 M⁻¹ s⁻¹.
